These are literature values, as cited in patent US7041851B2, “Fluorinated phenyl thiophenyl derivatives and their use for imaging serotonin transporters” (The Trustees of the University of Pennsylvania, priority 2002, dated 2006).

This series deals with T1, SERT (Rattus norvegicus, UniProt P31652).
T1 construct: from tissue; host or cells: rat brain in vivo (hypothalamus, striatum, hippocampus, cerebellum)
As to conditions: cited from earlier work.

T1 sequence (P31652 whole entry): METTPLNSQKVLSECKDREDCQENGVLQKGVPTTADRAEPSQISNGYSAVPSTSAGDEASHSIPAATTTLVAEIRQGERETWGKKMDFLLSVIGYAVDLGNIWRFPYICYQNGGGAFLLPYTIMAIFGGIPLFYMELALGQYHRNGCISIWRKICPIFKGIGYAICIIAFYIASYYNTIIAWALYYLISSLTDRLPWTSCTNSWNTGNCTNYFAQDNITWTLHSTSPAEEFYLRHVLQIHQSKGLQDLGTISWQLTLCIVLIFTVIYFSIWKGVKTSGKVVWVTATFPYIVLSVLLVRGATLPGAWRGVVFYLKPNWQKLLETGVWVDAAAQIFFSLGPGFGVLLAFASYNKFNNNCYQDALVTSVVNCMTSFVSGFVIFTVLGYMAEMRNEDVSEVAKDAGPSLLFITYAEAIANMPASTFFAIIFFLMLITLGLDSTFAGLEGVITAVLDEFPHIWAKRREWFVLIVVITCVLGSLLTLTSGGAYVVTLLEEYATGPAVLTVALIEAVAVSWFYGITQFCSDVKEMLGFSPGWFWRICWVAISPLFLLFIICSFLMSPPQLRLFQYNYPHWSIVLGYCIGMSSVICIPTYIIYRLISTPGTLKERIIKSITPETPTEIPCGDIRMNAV

Turning to `CN(C)Cc1ccccc1Sc1ccc([125I])cc1N` [[^125I]ADAM], the “Time of peak uptake” value (comparison with [18F]ACF, hypothalamus region) is given as 4 h.

For the molecule `CN([11CH3])Cc1ccccc1Sc1ccc(CF)cc1N` [AFM], under “rats, 11C-labelled, Huang et al., 2001b”, the “Brain uptake and specific binding” value was “excellent brain uptake and a high degree of specific binding”.
